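Interpolation was linear, between the two tested concentrations surrounding the appropriate level; five concentrations were tested over 48 hours in 96-well plates. Here, GI50 denotes the concentration required for 50% inhibition of growth.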 The source made the active and inactive calls. Rule as the data show it: active = GI50 up to about 1.1 µM and inactive = higher.
Key:
Test in all cases: NCI tumour cell line growth inhibition, 48 h
SK-MEL-5 = system: SK-MEL-5
MDA-N = system: MDA-N
SF-295 = system: SF-295
UACC-62 = system: UACC-62
A549 = system: A549
PC-3 = system: PC-3
SNB-19 = system: SNB-19
HOP-62 = system: HOP-62
SK-MEL-28 = system: SK-MEL-28
IGROV-1 = system: IGROV-1
M14 = system: M14
CCRF-CEM = system: CCRF-CEM
UO-31 = system: UO-31
SR = system: SR
NCI/ADR-RES = system: NCI/ADR-RES
NCI-H522 = system: NCI-H522
COLO 205 = system: COLO 205
MDA-MB-231 = system: MDA-MB-231
CAKI-1 = system: CAKI-1

| SMILES | GI50 (SK-MEL-5) | GI50 (MDA-N) | GI50 (SF-295) | GI50 (UACC-62) | GI50 (A549) | GI50 (PC-3) | GI50 (SNB-19) | GI50 (HOP-62) | GI50 (SK-MEL-28) | GI50 (IGROV-1) | GI50 (M14) | GI50 (CCRF-CEM) | GI50 (UO-31) | GI50 (SR) | GI50 (NCI/ADR-RES) | GI50 (NCI-H522) | GI50 (COLO 205) | GI50 (MDA-MB-231) | GI50 (CAKI-1) |
| --- | --- | --- | --- | --- | --- | --- | --- | --- | --- | --- | --- | --- | --- | --- | --- | --- | --- | --- | --- |
| COC(=O)C1(Cc2ccc3c(c2)CCC3)Cc2cc3c(cc2C1=O)CCC3 (stereo not given) | 14.3 µM (inactive) | 13 µM (inactive) | 35.6 µM (inactive) | 37 µM (inactive) | 18.2 µM (inactive) | 17.9 µM (inactive) | 31.2 µM (inactive) | > 46.5 µM (inactive) | 37.2 µM (inactive) | 24.4 µM (inactive) | 20.8 µM (inactive) | 17.7 µM (inactive) | 16 µM (inactive) | 11.4 µM (inactive) | 13.4 µM (inactive) | 8.85 µM (inactive) | 15.4 µM (inactive) | 24.6 µM (inactive) | 6.73 µM (inactive) |
| CC1=NN2C(=N)/C(=C/c3ccc(F)cc3)C(=O)N=C2S1 | > 100 µM (inactive) | > 100 µM (inactive) | > 100 µM (inactive) | > 100 µM (inactive) | > 100 µM (inactive) | > 100 µM (inactive) | > 100 µM (inactive) | > 100 µM (inactive) | > 100 µM (inactive) | > 100 µM (inactive) | > 100 µM (inactive) | > 100 µM (inactive) | > 100 µM (inactive) | 69.8 µM (inactive) | 13 µM (inactive) | > 100 µM (inactive) | > 100 µM (inactive) | > 100 µM (inactive) | > 100 µM (inactive) |
| C[C@]12CC/C(=N\O)C=C1CC[C@@H]1[C@@H]2CC[C@]2(C)C(=N/O)/C(=C/c3ccc([N+](=O)[O-])cc3)C[C@@H]12 | 3.21 µM (inactive) | 4.03 µM (inactive) | 3.56 µM (inactive) | 3.52 µM (inactive) | 3.94 µM (inactive) | 4.8 µM (inactive) | 7.5 µM (inactive) | 18.4 µM (inactive) | 9.25 µM (inactive) | 2.86 µM (inactive) | 4.05 µM (inactive) | 2.5 µM (inactive) | 2.67 µM (inactive) | 2.79 µM (inactive) | 5.13 µM (inactive) | 2.59 µM (inactive) | 4.9 µM (inactive) | 6.64 µM (inactive) | 2.29 µM (inactive) |
| COC(=O)[C@]12CC[C@H]3CC[C@H]([C@H]31)[C@H](c1ccccc1)N2 | 14.7 µM (inactive) | 17.9 µM (inactive) | 16.3 µM (inactive) | 14.4 µM (inactive) | 17.7 µM (inactive) | 16.3 µM (inactive) | 23 µM (inactive) | 17.4 µM (inactive) | 21.9 µM (inactive) | 17 µM (inactive) | 17.9 µM (inactive) | 21.4 µM (inactive) | 17.4 µM (inactive) | 12.1 µM (inactive) | 13.9 µM (inactive) | 20.5 µM (inactive) | 16.5 µM (inactive) | 16.3 µM (inactive) | 17.7 µM (inactive) |
| C=C[C@H]1CN2CCc3c([nH]c4c([C@@H]5CCCN5C)c(O)ccc34)[C@@H]2C[C@@H]1C[C@H]1c2[nH]c3ccccc3c2CCN1C | 1.57 µM (inactive) | 1.67 µM (inactive) | 1.57 µM (inactive) | 1.83 µM (inactive) | 1.5 µM (inactive) | 1.47 µM (inactive) | 1.64 µM (inactive) | 1.35 µM (inactive) | 1.79 µM (inactive) | 1.32 µM (inactive) | 1.09 µM (active) | 0.00427 µM (active) | 1.63 µM (inactive) | 0.256 µM (active) | 1.85 µM (inactive) | 1.85 µM (inactive) | 1.61 µM (inactive) | 1.76 µM (inactive) | 1.71 µM (inactive) |
| CC1=C(C)C2(C#N)C(=O)N3C(=NC(c4ccco4)NC3c3ccco3)C2(C#N)C(c2ccco2)N1 (stereo not given) | > 100 µM (inactive) | > 100 µM (inactive) | > 100 µM (inactive) | > 100 µM (inactive) | > 100 µM (inactive) | > 100 µM (inactive) | > 100 µM (inactive) | > 100 µM (inactive) | > 100 µM (inactive) | > 100 µM (inactive) | > 100 µM (inactive) | > 100 µM (inactive) | > 100 µM (inactive) | > 100 µM (inactive) | > 100 µM (inactive) | > 100 µM (inactive) | > 100 µM (inactive) | > 100 µM (inactive) | > 100 µM (inactive) |
| Nc1c([N+](=O)[O-])cc2c3c(cccc13)CC2 | 53.2 µM (inactive) | > 100 µM (inactive) | 91.6 µM (inactive) | 85.1 µM (inactive) | 78.5 µM (inactive) | > 100 µM (inactive) | 86.3 µM (inactive) | 74.6 µM (inactive) | > 100 µM (inactive) | > 100 µM (inactive) | > 100 µM (inactive) | 90.6 µM (inactive) | 42.5 µM (inactive) | 25.4 µM (inactive) | 40.8 µM (inactive) | 93.8 µM (inactive) | 64.1 µM (inactive) | 38.9 µM (inactive) | > 100 µM (inactive) |
| C[C@@H](C[C@H]1OC(C)(C)O[C@@H]1C(C)(C)O)[C@H]1CC=C2[C@]3(C)[C@H](O)C[C@H]4C(C)(C)[C@H](O)CC[C@]4(C)[C@H]3CC[C@]21C | 7.36 µM (inactive) | 8.85 µM (inactive) | 9.14 µM (inactive) | 11.5 µM (inactive) | 5.86 µM (inactive) | 5.05 µM (inactive) | 10.7 µM (inactive) | 12.8 µM (inactive) | 9.95 µM (inactive) | 11.9 µM (inactive) | 9.29 µM (inactive) | 5.64 µM (inactive) | 8.93 µM (inactive) | 4.76 µM (inactive) | 7.69 µM (inactive) | 8.24 µM (inactive) | 5.26 µM (inactive) | 7.93 µM (inactive) | 10.8 µM (inactive) |
| COCC#C[C@@]1(O)CCCCC1CC(OC)OC (stereo not given in full) | > 100 µM (inactive) | > 100 µM (inactive) | > 100 µM (inactive) | 34.9 µM (inactive) | > 100 µM (inactive) | > 100 µM (inactive) | > 100 µM (inactive) | > 100 µM (inactive) | > 100 µM (inactive) | 48.1 µM (inactive) | > 100 µM (inactive) | 38.5 µM (inactive) | > 100 µM (inactive) | 40.3 µM (inactive) | > 100 µM (inactive) | 24.7 µM (inactive) | > 100 µM (inactive) | > 100 µM (inactive) | > 100 µM (inactive) |
| C=C(C)C(=O)OC1C[C@H](COC(C)=O)C2CC=C(CO)C2C2OC(=O)C(=C)[C@H]12 (stereo not given in full) | > 100 µM (inactive) | 34.5 µM (inactive) | > 100 µM (inactive) | 39.6 µM (inactive) | > 100 µM (inactive) | > 100 µM (inactive) | > 100 µM (inactive) | > 100 µM (inactive) | 32.3 µM (inactive) | > 100 µM (inactive) | 16.3 µM (inactive) | 10.4 µM (inactive) | 39.2 µM (inactive) | 23.2 µM (inactive) | 45.4 µM (inactive) | 19.1 µM (inactive) | 16.4 µM (inactive) | 51.8 µM (inactive) | 41.6 µM (inactive) |
